Test results as given in ChEMBL document CHEMBL6134827, “The discovery of novel antimicrobial peptides against drug-resistant bacteria based on fragments fusion strategy” (Eur J Med Chem, 2025).
Calls of active or inactive are those of the source. The calls are words filed in the database; no cut-off is given here. Non-standard residues stand in square brackets, D forms with d. Residues, ends and D or L forms follow the SMILES beside them. Dab = NCC[C@H](N)C(=O)O

How the values were obtained:
[1] = Hemolytic activity in human red blood cell assessed as hemolysis at 128 microg/ml measured after 1 hrs by microplate reader assay relative to control; assay type: toxicity, cell-based, Erythrocyte; conditions: red blood cells, at 128 µg/mL, read-out: Activity
[2] = Cytotoxicity against human LO2 cells assessed as survival rate at 64 microg/ml measured after 24 hrs by CCK-8 assay relative to control; assay type: toxicity, cell-based, L02; conditions: at 64 µg/mL, read-out: Survival
Pseudomonas aeruginosa [3] = assay: Antibacterial activity against multidrug resistant Pseudomonas aeruginosa assessed as reduction in bacterial growth at 32 microg/mL measured after 1.5 hrs by bactericidal kinetic assay relative to control; assay type: functional; set-up: scale not given: the % may be the effect or the level left; conditions: dose 32 µg/ml
Staphylococcus aureus [4] = assay: Induction of morphological changes in multidrug resistant Staphylococcus aureus assessed as surface roughening at 16 microg/ml incubated for 1 hrs by SEM analysis; assay type: functional, organism-based; conditions: dose 16.0 µg/ml
Staphylococcus aureus [5] = assay: Drug resistance, ratio of MIC for multidrug resistant Staphylococcus aureus after 16 passages to MIC for multidrug resistant Staphylococcus aureus after first exposure; assay type: functional
Cell membrane [6] = assay: Disruption of cell membrane in multidrug resistant Pseudomonas aeruginosa assessed as increase in red fluorescence at 16 microg/mL incubated after 2 hrs by SYTO9/PI double staining based fluorescence confocal microscopic analysis; assay type: subcellular; conditions: dose 16.0 µg/ml
Cell membrane [7] = assay: Induction of outer cell membrane permeabilization in multidrug resistant Pseudomonas aeruginosa assessed as increase in fluorescence intensity measured for 12 mins by NPN uptake assay; assay type: subcellular; conditions: dose 4-32 µg/ml
Pseudomonas aeruginosa [8] = assay: Antimicrobial activity against multidrug resistant Pseudomonas aeruginosa at 1.9 to 500 microg/ml in presence of phosphatidylglycerol acid by checkerboard microdilution assay; assay type: functional, organism-based; conditions: dose 1.9-500 µg/ml
[9] = Hepatotoxicity in female C57BL/6 mouse assessed as change in AST level at 20 mg/kg, ip administered daily and measured for 5 days; assay type: toxicity, organism-based; conditions: in vivo, 120 h, time 5 day
[10] = Toxicity in female C57BL/6 mouse assessed as histopathological change in liver at 20 mg/kg, ip administered daily and measured for 5 days by H and E staining based analysis; assay type: organism-based; conditions: in vivo, 120 h, time 5 day
Pseudomonas aeruginosa [11] = assay: In vivo antibacterial activity against multidrug resistant Pseudomonas aeruginosa infected in acute peritonitis C57BL/6 mouse model assessed as decrease in IL-1beta level in serum at 5 to 20 mg/kg, ip measured after 12 hrs by ELISA; assay type: functional, organism-based; conditions: dose 5-20 mg/kg
Pseudomonas aeruginosa [12] = assay: In vivo antibacterial activity against multidrug resistant Pseudomonas aeruginosa infected in acute peritonitis C57BL/6 mouse model assessed as reduction in bacterial load in lung at 10 to 20 mg/kg, ip measured after 12 hrs; assay type: functional, organism-based; conditions: dose 10-20 mg/kg
Pseudomonas aeruginosa [13] = assay: In vivo antibacterial activity against multidrug resistant Pseudomonas aeruginosa infected in acute peritonitis C57BL/6 mouse model assessed as reduction in bacterial load in kidney at 10 to 20 mg/kg, ip measured after 12 hrs; assay type: functional, organism-based; conditions: dose 10-20 mg/kg
Pseudomonas aeruginosa [14] = assay: In vivo antibacterial activity against multidrug resistant Pseudomonas aeruginosa infected in acute peritonitis C57BL/6 mouse model assessed as reduction in tubular dilation at 5 to 20 mg/kg, ip measured after 12 hrs by H and E staining based analysis; assay type: functional, organism-based; conditions: dose 5-20 mg/kg
Pseudomonas aeruginosa [15] = assay: Induction of morphological changes in multidrug resistant Pseudomonas aeruginosa assessed as effect on cell integrity at 16 microg/ml incubated for 1 hrs by SEM analysis; assay type: functional, organism-based; conditions: dose 16.0 µg/ml

Structure (SMILES): CC(C)C[C@H](NC(=O)CN)C(=O)N[C@@H](CCCNC(=N)N)C(=O)N[C@@H](CCN)C(=O)N[C@@H](Cc1c[nH]c2ccccc12)C(=O)N[C@@H](CC(C)C)C(=O)N[C@@H](CCCNC(=N)N)C(=O)N[C@@H](CCN)C(=O)N[C@@H](Cc1ccccc1)C(=O)N[C@@H](CCN)C(=O)N[C@@H](CCN)C(=O)N[C@@H](Cc1ccccc1)C(=O)N[C@@H](Cc1c[nH]c2ccccc12)C(=O)O (H-GLR[Dab]WLR[Dab]F[Dab][Dab]FW-OH)
- hemolysis at 1 h, 128 µg/mL [1]: < 10%
- viability at 24 h, 64 µg/mL [2]: > 80%
- Activity (Pseudomonas aeruginosa [3]): 100%
- Activity (Staphylococcus aureus [4]): Active
- Ratio (Staphylococcus aureus [5]): <2
- Activity (Cell membrane [6]): Active
- Activity (Cell membrane [7]): Active
- Activity (Pseudomonas aeruginosa [8]): inactive
- Activity [9]: Non-toxic
- Activity [10]: Non-toxic
- Activity (Pseudomonas aeruginosa [11]): Active
- Activity (Pseudomonas aeruginosa [12]): Active
- Activity (Pseudomonas aeruginosa [13]): Active
- Activity (Pseudomonas aeruginosa [14]): Active
- Activity (Pseudomonas aeruginosa [15]): Active
